In patent US9526785B2, “Pharmaceuticals for oral delivery” (Enteris BioPharma, Inc., priority 2013, dated 2016):
“And” between values parts separate entries of the source, which are not always exact repeats. Equal values may be shown once.

Assay: Tigecycline plasma PK after IV bolus in dogs
Type: in vivo, Beagle dogs
Details: for concentration at 10 min / concentration at 15 min / concentration at 20 min: Beagle
Procedure: Adult beagle dogs weighing approximately 9 to 15 kg were used in the study. […] Room temperature was set to be maintained between approximately 20±5° C. Relative humidity was monitored but not controlled.
TEKLAD™ Certified Canine Diet was provided once daily in amounts (˜400 grams) appropriate for the size and age of the animals. Tap water was available ad libitum via automatic watering device or water bowls.
Doses are expressed in terms of free net tigecycline content. […] Oral dosing of enteric-coated capsules was accomplished by administering them to the back of the dog's mouth, followed by a chase of 5 mL water to ensure swallowing.
Water was provided ad libitum. […] Subsequently, each group of animals was dosed based on the protocol, i.e. either IV, or PO by capsule.
Minocycline (VWR international) was used as an internal standard. Sample processing/clean-up of plasma samples was carried out offline by protein precipitation with acidified acetonitrile using 0.5% trifluoroacetic acid (TFA).
The HPLC system consisted of Shimadzu SIL-HTc HPLC system equipped with dual Shimadzu LC-10ADvp isopumps, a Shimadzu CTO-10ASvp column temperature controller and a Shimadzu SPD-10Avp variable wavelength detector. […] Mobile phase A consisted of 23 mM phosphate buffer pH 2.5 with 4 mM 1-octanesulfonic acid, while mobile phase B consisting of 90% acetonitrile, 10% water, with 2 mM 1-octanesulfonic acid. […] The total runtime was 18 minutes per sample. The mobile phase flow rate was 1.2 mL/min. Detection was performed using the SPD-10Avp variable wavelength detector set at 350 nm, with a sensitivity of 0.001 aufs.
The samples were then centrifuged under refrigeration at 13 k rpm for 5 minutes. The supernatant was taken and the liquid removed to dryness under nitrogen in a turbovap. The dried extract was reconstituted in 60 μL of mobile phase A and the suspension was further centrifuged at 5 k rpm for 5 minutes to pellet any insoluble matter. The resulting supernatant was then injected onto the LC.
The unknown concentration in dog plasma samples was determined by interpolation of the peak area ratios of analyte:internal standard versus the ratio of their nominal concentrations into the regression line obtained from calibration standards spiked in pooled dog plasma. No regression weighting was used for the calculations. […] The calibration curve covered the range of 0.05 μg/mL to 5 μg/mL.
It should be noted however, that when the method was transferred to an older HPLC system (equipped with a Shimadzu SCT-10Avp system controller and SIL-10A autoinjector), the time program was further altered such that the gradient went to 38% mobile phase B to account to system design changes. All other parameters remained unchanged.
Tigecycline PK parameters for individual dogs were calculated using non-compartmental analysis with PK Functions for Microsoft Excel.

[1] = 1 mg IV in PBS (0.08 mg/kg), SC427, individual dogs

SMILES: CN(C)c1cc(NC(=O)CNC(C)(C)C)c(O)c2c1C[C@H]1C[C@H]3[C@H](N(C)C)C(O)=C(C(N)=O)C(=O)[C@@]3(O)C(O)=C1C2=O [Tigecycline]
- AUC(0-t) [1]: 61.40 ng·h/mL and 99.54 ng·h/mL
- Cmax [1]: 66.27 ng/mL and 85.18 ng/mL
- Tmax [1]: 5 min
- Tmax (1 mg IV in PBS (0.08 mg/kg), SC427, mean): 5 min
- Tmax (5 mg IV in PBS ([…]), SC431, individual dogs): 5 min
- Tmax (5 mg IV in PBS ([…]), SC431, mean): 5 min
- Tigecycline Plasma Concentration (5 min, 1 mg IV in PBS (0.08 mg/kg), SC427, individual dogs): 66.27 ng/mL and 85.18 ng/mL
- Tigecycline Plasma Concentration (10 min, 1 mg IV in PBS (0.08 mg/kg), SC427, individual dogs): 23.92 ng/mL and 33.00 ng/mL
- Tigecycline Plasma Concentration (15 min, 1 mg IV in PBS (0.08 mg/kg), SC427, individual dogs): 19.85 ng/mL and 20.60 ng/mL
- Tigecycline Plasma Concentration (20 min, 1 mg IV in PBS (0.08 mg/kg), SC427, individual dogs): 21.11 ng/mL and 29.60 ng/mL
- Tigecycline Plasma Concentration (30 min, 1 mg IV in PBS (0.08 mg/kg), SC427, individual dogs): 17.14 ng/mL and 13.86 ng/mL
- Tigecycline Plasma Concentration (40 min, 1 mg IV in PBS (0.08 mg/kg), SC427, individual dogs): 11.51 ng/mL and 21.58 ng/mL
- Tigecycline Plasma Concentration (60 min, 1 mg IV in PBS (0.08 mg/kg), SC427, individual dogs): 12.49 ng/mL and 14.50 ng/mL
- Tigecycline Plasma Concentration (90 min, 1 mg IV in PBS (0.08 mg/kg), SC427, individual dogs): 8.90 ng/mL and 13.98 ng/mL
- Tigecycline Plasma Concentration (120 min, 1 mg IV in PBS (0.08 mg/kg), SC427, individual dogs): 8.80 ng/mL and 12.96 ng/mL
- Tigecycline Plasma Concentration (360 min, 1 mg IV in PBS (0.08 mg/kg), SC427, individual dogs): 0.00 ng/mL (2×) and 3.45 ng/mL
- Cmax, Mean (IV bolus 1 mg (0.08 mg/kg), SC427): 79 ng/mL
- Tmax (IV, Study 1 (SC427), 1 mg (0.08 mg/kg), mean (% CV)): 5 (0) min
- concentration at 10 min (female, dog, plasma, intravenous, 1 mg, Tigecycline Plasma Concentration, 10 min, 1 mg IV in PBS (0.08 mg/kg), SC427, individual dogs): 38.8 ng/mL
- concentration at 10 min (female, dog, plasma, intravenous, 1 mg, Tigecycline Plasma Concentration, 10 min, 1 mg IV in PBS (0.08 mg/kg), SC427, mean): 31.9 ng/mL
- concentration at 15 min (female, dog, plasma, intravenous, 1 mg, Tigecycline Plasma Concentration, 15 min, 1 mg IV in PBS (0.08 mg/kg), SC427, individual dogs): 26.5 ng/mL
- concentration at 15 min (female, dog, plasma, intravenous, 1 mg, Tigecycline Plasma Concentration, 15 min, 1 mg IV in PBS (0.08 mg/kg), SC427, mean): 22.3 ng/mL
- concentration at 20 min (female, dog, plasma, intravenous, 1 mg, Tigecycline Plasma Concentration, 20 min, 1 mg IV in PBS (0.08 mg/kg), SC427, individual dogs): 27.7 ng/mL
- concentration at 20 min (female, dog, plasma, intravenous, 1 mg, Tigecycline Plasma Concentration, 20 min, 1 mg IV in PBS (0.08 mg/kg), SC427, mean): 26.1 ng/mL
- concentration at 5 min (female, beagle, dog, plasma, intravenous, 1 mg, Tigecycline Plasma Concentration, 5 min, 1 mg IV in PBS (0.08 mg/kg), SC427, individual dogs): 86 ng/mL
- concentration at 5 min (female, beagle, dog, plasma, intravenous, 1 mg, Tigecycline Plasma Concentration, 5 min, 1 mg IV in PBS (0.08 mg/kg), SC427, mean): 79.1 ng/mL
- concentration at 30 min (female, beagle, dog, plasma, intravenous, 1 mg, Tigecycline Plasma Concentration, 30 min, 1 mg IV in PBS (0.08 mg/kg), SC427, individual dogs): 17.6 ng/mL
- concentration at 30 min (female, beagle, dog, plasma, intravenous, 1 mg, Tigecycline Plasma Concentration, 30 min, 1 mg IV in PBS (0.08 mg/kg), SC427, mean): 16.2 ng/mL
- concentration at 40 min (female, beagle, dog, plasma, intravenous, 1 mg, Tigecycline Plasma Concentration, 40 min, 1 mg IV in PBS (0.08 mg/kg), SC427, individual dogs): 14.3 ng/mL
- concentration at 40 min (female, beagle, dog, plasma, intravenous, 1 mg, Tigecycline Plasma Concentration, 40 min, 1 mg IV in PBS (0.08 mg/kg), SC427, mean): 15.8 ng/mL
- concentration at 60 min (female, beagle, dog, plasma, intravenous, 1 mg, Tigecycline Plasma Concentration, 60 min, 1 mg IV in PBS (0.08 mg/kg), SC427, individual dogs): 13.5 ng/mL
- concentration at 60 min (female, beagle, dog, plasma, intravenous, 1 mg, Tigecycline Plasma Concentration, 60 min, 1 mg IV in PBS (0.08 mg/kg), SC427, mean): 13.5 ng/mL
- concentration at 90 min (female, beagle, dog, plasma, intravenous, 1 mg, Tigecycline Plasma Concentration, 90 min, 1 mg IV in PBS (0.08 mg/kg), SC427, individual dogs): 11.2 ng/mL
- concentration at 90 min (female, beagle, dog, plasma, intravenous, 1 mg, Tigecycline Plasma Concentration, 90 min, 1 mg IV in PBS (0.08 mg/kg), SC427, mean): 11.4 ng/mL
- concentration at 120 min (female, beagle, dog, plasma, intravenous, 1 mg, Tigecycline Plasma Concentration, 120 min, 1 mg IV in PBS (0.08 mg/kg), SC427, individual dogs): 11.6 ng/mL
